# Measurements taken from patent publication US20220023231A1, “METHOD OF TREATING POSTPRANDIAL INFLAMMATION AND PREVENTING WEIGHT GAIN” (DASMAN DIABETES INSTITUTE, priority 2020, published 2022).
# How the values were obtained:
# THP-1 cells [1] = assay: Flow cytometry (FACS) assessment of lipid accumulation in TNF-α stimulated THP-1 derived macrophages; type: cell-based, Human; conditions: in response to the presence of TNF-α
# Method: (§1) Cell culture: Human monocytic leukemia cell line (THP-1) cells were purchased from American Type Culture Collection (ATCC). Cell cultures were maintained in RPMI-1640 culture medium (Gibco, Life Technologies, Grand Island, USA) supplemented with 10% fetal bovine serum (Gibco, Life Technologies, Grand Island, N.Y., USA), 2 mM glutamine (Gibco, Invitrogen, Grand Island, N.Y., USA), 1 mM sodium pyruvate, 10 mM HEPES, 100 ug/m1 Normocin 50 U/ml penicillin and 50 μg/m1 streptomycin (P/S; Gibco, Invitrogen, Grand Island, N.Y., USA) and incubated at 37° C. (with humidity) in 5% CO2.
# (§2) Cell stimulation: Prior to stimulation, THP-1 cells were plated in 24-well plates (Costar, Corning Incorporated, Corning, N.Y., USA) at 5×10^5 cells/well cell density unless indicated otherwise. […]
# macrophage = assay: Fatty acid uptake related gene expression and intracellular fat in macrophages/monocytes exposed to palmitic acid; type: cell-based
# [2] = Constant high fat diet (HFD) in mice with daily drinkable dose; type: in vivo, mouse
# Excerpt: (§3) A further experiment was designed to test whether constant daily doses of Triacsin C could prevent weight gain (or the development of obesity and other weight gain related diseases). […] Mice were placed on a constant high fat diet (HFD) for up to 5 weeks in the presence of a daily (drinkable) dose of either Triacsin C or the vehicle control (FIG. 9(A)).
# human macrophages = assay: Inflammatory and infiltration marker gene expression in human macrophages exposed to palmitic acid; type: cell-based; conditions: 30 minutes pre-treatment before addition of palmitic acid
# [3] = test system: pro-inflammatory monocytes (CD45+/Ly6C/CD11b+ cells); assay: Acute high fat food feeding in mice, pro-inflammatory monocytes in blood by flow cytometry; type: in vivo, mouse
# Method: Further experiments were developed to test the utility of Triacsin C as an anti-inflammatory and/or weight gain prevention drug in a mouse model. Base line blood samples were taken from each mouse before feeding. Mice were then administered either Triacsin C (10 mg/m1) or a vehicle (control) in a drinkable form 30 minutes prior to introducing them to high fat food. Four hours after food consumption another blood sample was collected from each mouse and the inflammatory response was measured using flow cytometry to look for pro-inflammatory monocytes (CD45^+/Ly6C/CD11b^+ cells). (See FIGS. 7(A)-7(B)) The experiment was repeated 5 times on non-consecutive days and also confirmed that the dose was safe.
# as §3
# THP-1 cells [4] = assay: Oil Red O staining of lipid accumulation in TNF-α stimulated THP-1 derived macrophages; type: cell-based, Human; conditions: in response to TNF-α (10 ng/ml)
# Method: as §1, §2
# Oil Red O staining: To determine the degree of lipid accumulation, the accumulation of cytoplasmic triglycerides in cells were measured by staining with Oil Red O (SigmaAldrich, St Louis, Mo., USA). […]
# THP-1 cells [5] = assay: IL-1β ELISA and TNF-α / CD11b mRNA expression in macrophage cells after TNF-α; type: cell-based, Human; conditions: in response to TNF-α treatment
# Method: as §1, §2
# [6] = daily dose, HFD, versus vehicle control
# [7] = low daily drinkable dose, HFD up to 5 weeks
SMILES,"lipid accumulation (FACS, cell size and granulation) (THP-1 cells [1])",amount of intracellular fat found within monocytes (macrophage; data not shown),"expression of fatty acid uptake-related genes (macrophage; pre-treatment, response to palmitic acid (FIG. 5))","adipose tissue (fat) of livers [2, 6]","liver size [2, 6]","increase in inflammatory monocytes from long term HFD [2, 7]","weight gain resulting from HFD [2, 7]","infiltration markers (CD11b, CCR2, CD80) (human macrophages)","upregulation of monocytic inflammatory markers (IL-1b, CD11c, HLA-DR) (human macrophages)","safety of the dose ([3]; 10 mg/m1 drinkable, repeated 5 times on non-consecutive days)","inflammatory response in monocytes (CD45+, Ly6C+, CD11b+ cells) ([3]; drinkable, 30 minutes prior to high fat food, blood four hours after food)","reduction of inflammatory upregulation ([3]; lower dose, four-hour acute high fat diet feeding)","pro-inflammatory monocytes ([3]; lower dose, four-hour acute high fat diet feeding, control 34.2%)",lipid accumulation (Oil Red O staining) (THP-1 cells [4]),"inflammatory markers (IL-1B protein, TNF-α mRNA, CD11b mRNA) (THP-1 cells [5])"
CCOC(=O)[C@@]1(CCCCCCOc2ccc(Cl)cc2)CO1 [Etomoxir],increased lipid accumulation,,,,,,,,,,,,,,
"CCC/C=C/C/C=C/C=C/C=NNN=O [Triacsin C, N-(((2E,4E,7E)-undeca-2,4,7-trienylidene)amino)nitrous amide]",no significant change in apparent lipid accumulation,reduced the amount of intracellular fat found within monocytes,inhibited expression of fatty acid uptake-related genes,significantly less adipose tissue,smaller,prevented the increase in inflammatory monocytes,dramatically prevented,reduce infiltration markers,reduce the upregulation of monocytic inflammatory markers,safe,inhibit the inflammatory response in monocytes,10%,25.4%,prevents lipid accumulation,little to no change in inflammatory markers
